In patent US10925831B2, “Liposomal formulations of platinum-acridine anticancer agents and methods thereof” (Wake Forest University, priority 2017, dated 2021):

Tested on: A549 xenografts
Assay: A549 xenograft study
Format: in vivo, mice
Conditions: P8-A1 q4dx4 i.v. 0.4 mg/kg; Lipo4*-P8-A1 q4dx11 i.v. 0.4 mg/kg; cisplatin q4dx11 i.p. 4.0 mg/kg; n=8
Procedure: FIGS. 10A, 10B, 10C and 10D illustrate evaluation of P8-A1 and its liposomal formulation, Lipo4-P8-A1, in a A549 xenograft model in mice. FIGS. 10 A-B illustrate tumor volumes and mouse weights monitored for Lipo4-P8-A1 and control, administered q4dx4, i.v. @ 0.4 mg/kg, n=10. Tumor growth inhibition is 65% on day 41, P<0.05. Mouse weight loss is 22% on day 41, potentially reversible. No other toxicity symptoms noted. FIGS. 10 C-D illustrate tumor volumes and mouse weights monitored for P8-A1 (q4dx4, i.v. @ 0.4 mg/kg), Lipo4*-P8-A1, (q4dx11, i.v. @ 0.4 mg/kg), cisplatin (q4dx11, i.p. @ 4.0 mg/kg), and control (q4dx11, i.v.). A total of 8 mice per group were treated (n=8). See text for discussion. […]
A549 Xenograft study. […] Animal weights and tumor volumes were measured and recorded throughout the entire study after the first dose was administered. Tumor volumes were determined using the formula: V (mm^3)=d^2×D/2, where d and D are the shortest and longest dimension of the tumor, respectively, and are reported as the sum of both tumors for each test animal. […] The concentration of Pt in selected tissues was determined by quadrupole inductively-coupled mass spectrometry (ICP-MS) on a Thermo ICP-MS instrument at the Analytic Chemistry Service facility of Research Triangle Institute, Research Triangle Park, N.C. […]

For `N.N.[Cl][Pt][Cl]` [Cisplatin, cisplatin], the “antitumor efficacy, growth inhibition (Study B)” value was “does not show efficacy”.
